Literature values as cited in US9386793B2, “Compositions and methods for treating obesity and related disorders by characterizing and restoring mammalian bacterial microbiota” (New York University, priority 2010, dated 2016).

Experiments:
Coprobacillus = system: Coprobacillus; design: key: + facilitates growth; w weak growth promotion; +/− growth variable dependent on strain; − no growth effect; details: substrate for fermentation
Holdemania = system: Holdemania; design: key: + facilitates growth; w weak growth promotion; +/− growth variable dependent on strain; − no growth effect; details: substrate for fermentation
Oscillibacter = system: Oscillibacter; design: key: + facilitates growth; w weak growth promotion; +/− growth variable dependent on strain; − no growth effect; details: substrate for fermentation
Clostridium cocleatum = system: Clostridium cocleatum; design: key: + facilitates growth; w weak growth promotion; +/− growth variable dependent on strain; − no growth effect; details: substrate for fermentation
Johnsonella = system: Johnsonella; design: key: + facilitates growth; w weak growth promotion; +/− growth variable dependent on strain; − no growth effect; details: substrate for fermentation
Sporacetegenium = system: Sporacetegenium; design: key: + facilitates growth; w weak growth promotion; +/− growth variable dependent on strain; − no growth effect; details: substrate for fermentation
[1] = system: Coprobacillus, Sporacetigenium, Holdemania, or Clostridium cocleatum; details: but not of Johnsonella and Oscillibacter

In the case of `O=C[C@@H](O)[C@H](O)[C@H](O)CO` [Arabinose], the “growth of Coprobacillus” value (Coprobacillus) is given as “−”, the “growth of Holdemania” value (Holdemania) is given as “w” and the “growth of Oscillibacter” value (Oscillibacter) is given as “+/−^a”. The “growth of Clostridium cocleatum” value (Clostridium cocleatum) was “−”, the “growth of Johnsonella” value (Johnsonella) was “−” and the “growth of Sporacetegenium” value (Sporacetegenium) was “+”.
For `O=C[C@H](O)[C@@H](O)[C@H](O[C@@H]1O[C@H](CO)[C@@H](O)[C@H](O)[C@H]1O)[C@H](O)CO` [Cellobiose], the “growth of Coprobacillus” value (Coprobacillus) is given as “+”, the “growth of Holdemania” value (Holdemania) is given as “w” and the “growth and metabolic activity of genera (as follows from Table 1)” value (“growth and metabolic activity of genera” for short) [1] is given as “stimulate growth and metabolic activity of two or more genera”. The “growth of Oscillibacter” value (Oscillibacter) was “−”, the “growth of Clostridium cocleatum” value (Clostridium cocleatum) was “+” and the “growth of Johnsonella” value (Johnsonella) was “−”. For the same compound, the “growth of Sporacetegenium” value (Sporacetegenium) was “w”.
In the case of `O=C[C@@H](O)[C@H](O)[C@H](O)CO` [D-arabinose], the “growth of Oscillibacter” value (Oscillibacter) is given as “−”.
In the case of `O=c1ccc2cc(O[C@@H]3O[C@H](CO)[C@@H](O)[C@H](O)[C@H]3O)c(O)cc2o1` [Esculin], the “growth of Coprobacillus” value (Coprobacillus) is listed as “−”, the “growth of Holdemania” value (Holdemania) is listed as “+” and the “growth of Johnsonella” value (Johnsonella) is listed as “−”.
In the case of `O=C(CO)[C@@H](O)[C@H](O)[C@H](O)CO` [Fructose], the “growth of Coprobacillus” value (Coprobacillus) is given as “+”, the “growth of Holdemania” value (Holdemania) is given as “+” and the “growth and metabolic activity of genera” value [1] is given as “stimulate growth and metabolic activity of two or more genera”. For the same compound, the “growth of Oscillibacter” value (Oscillibacter) was “−”, the “growth of Clostridium cocleatum” value (Clostridium cocleatum) was “+” and the “growth of Johnsonella” value (Johnsonella) was “−”. For the same compound, the “growth of Sporacetegenium” value (Sporacetegenium) was “+”.
In the case of `O=C[C@H](O)[C@@H](O)[C@@H](O)[C@H](O)CO` [Galactose], the “growth of Coprobacillus” value (Coprobacillus) is given as “+”, the “growth and metabolic activity of genera” value [1] is given as “stimulate growth and metabolic activity of two or more genera” and the “growth of Oscillibacter” value (Oscillibacter) is given as “−”. For the same compound, the “growth of Clostridium cocleatum” value (Clostridium cocleatum) was “+” and the “growth of Sporacetegenium” value (Sporacetegenium) was “w”.
For `O=C[C@H](O)[C@@H](O)[C@@H](O)CO` [L-arabinose], the “growth of Oscillibacter” value (Oscillibacter) is given as “+”.
For `OC[C@H]1O[C@@H](O[C@H]2[C@H](O)[C@@H](O)C(O)O[C@@H]2CO)[C@H](O)[C@@H](O)[C@H]1O` (stereo partly shown) [Lactose], the “growth of Coprobacillus” value (Coprobacillus) is given as “+”, the “growth of Holdemania” value (Holdemania) is given as “+” and the “growth and metabolic activity of genera” value [1] is given as “stimulate growth and metabolic activity of two or more genera”. The “growth of Oscillibacter” value (Oscillibacter) was “−”, the “growth of Clostridium cocleatum” value (Clostridium cocleatum) was “+” and the “growth of Johnsonella” value (Johnsonella) was “−”. The “growth of Sporacetegenium” value (Sporacetegenium) was “w”.
In the case of `OC[C@H]1O[C@H](O[C@H]2[C@H](O)[C@@H](O)[C@H](O)O[C@@H]2CO)[C@H](O)[C@@H](O)[C@@H]1O` [Maltose], the “growth of Coprobacillus” value (Coprobacillus) is given as “+”, the “growth of Holdemania” value (Holdemania) is given as “+” and the “growth and metabolic activity of genera” value [1] is given as “stimulate growth and metabolic activity of two or more genera”. The “growth of Oscillibacter” value (Oscillibacter) was “−”, the “growth of Clostridium cocleatum” value (Clostridium cocleatum) was “+” and the “growth of Johnsonella” value (Johnsonella) was “−”. The “growth of Sporacetegenium” value (Sporacetegenium) was “+”.
In the case of `OC[C@H]1O[C@H](OCC2O[C@@H](O)[C@H](O)[C@@H](O)[C@@H]2O)[C@H](O)[C@@H](O)[C@H]1O` (stereo partly shown) [Mellibiose], the “growth of Holdemania” value (Holdemania) is listed as “w”, the “growth and metabolic activity of genera” value [1] is listed as “stimulate growth and metabolic activity of two or more genera” and the “growth of Oscillibacter” value (Oscillibacter) is listed as “−”. For the same compound, the “growth of Clostridium cocleatum” value (Clostridium cocleatum) was “+”, the “growth of Johnsonella” value (Johnsonella) was “−” and the “growth of Sporacetegenium” value (Sporacetegenium) was “w”.
For `OC[C@H]1O[C@H](OC[C@H]2O[C@H](O[C@]3(CO)O[C@H](CO)[C@@H](O)[C@@H]3O)[C@H](O)[C@@H](O)[C@@H]2O)[C@H](O)[C@@H](O)[C@H]1O` [Raffinose], the “growth of Coprobacillus” value (Coprobacillus) is listed as “−”, the “growth of Holdemania” value (Holdemania) is listed as “w” and the “growth and metabolic activity of genera” value [1] is listed as “stimulate growth and metabolic activity of two or more genera”. The “growth of Oscillibacter” value (Oscillibacter) was “−”, the “growth of Clostridium cocleatum” value (Clostridium cocleatum) was “+” and the “growth of Johnsonella” value (Johnsonella) was “−”. For the same compound, the “growth of Sporacetegenium” value (Sporacetegenium) was “w”.
For `C[C@H](O)[C@H](O)[C@@H](O)[C@@H](O)C=O` [Rhamnose], the “growth of Coprobacillus” value (Coprobacillus) is listed as “−”, the “growth of Holdemania” value (Holdemania) is listed as “w” and the “growth of Oscillibacter” value (Oscillibacter) is listed as “−”. For the same compound, the “growth of Clostridium cocleatum” value (Clostridium cocleatum) was “−”, the “growth of Johnsonella” value (Johnsonella) was “−” and the “growth of Sporacetegenium” value (Sporacetegenium) was “w”.
In the case of `O=C[C@H](O)[C@H](O)[C@H](O)CO` [Ribose], the “growth of Coprobacillus” value (Coprobacillus) is given as “−”, the “growth of Holdemania” value (Holdemania) is given as “w” and the “growth of Oscillibacter” value (Oscillibacter) is given as “+”. The “growth of Clostridium cocleatum” value (Clostridium cocleatum) was “−”, the “growth of Johnsonella” value (Johnsonella) was “−” and the “growth of Sporacetegenium” value (Sporacetegenium) was “+/−”.
For `OCc1ccccc1O[C@@H]1O[C@H](CO)[C@@H](O)[C@H](O)[C@H]1O` [Salicin], the “growth of Coprobacillus” value (Coprobacillus) is listed as “+”, the “growth of Holdemania” value (Holdemania) is listed as “+” and the “growth and metabolic activity of genera” value [1] is listed as “stimulate growth and metabolic activity of two or more genera”. The “growth of Oscillibacter” value (Oscillibacter) was “−”, the “growth of Clostridium cocleatum” value (Clostridium cocleatum) was “w” and the “growth of Johnsonella” value (Johnsonella) was “−”. The “growth of Sporacetegenium” value (Sporacetegenium) was “−”.
For `OC[C@H]1O[C@@](CO)(O[C@H]2O[C@H](CO)[C@@H](O)[C@H](O)[C@H]2O)[C@@H](O)[C@@H]1O` [Sucrose], the “growth of Coprobacillus” value (Coprobacillus) is listed as “+”, the “growth of Holdemania” value (Holdemania) is listed as “+” and the “growth and metabolic activity of genera” value [1] is listed as “stimulate growth and metabolic activity of two or more genera”. The “growth of Oscillibacter” value (Oscillibacter) was “−”, the “growth of Clostridium cocleatum” value (Clostridium cocleatum) was “+” and the “growth of Johnsonella” value (Johnsonella) was “−”. The “growth of Sporacetegenium” value (Sporacetegenium) was “w”.
In the case of `OC[C@H]1O[C@H](O[C@H]2O[C@H](CO)[C@@H](O)[C@H](O)[C@H]2O)[C@H](O)[C@@H](O)[C@@H]1O` [Trehalose], the “growth of Coprobacillus” value (Coprobacillus) is listed as “+”, the “growth of Holdemania” value (Holdemania) is listed as “w” and the “growth and metabolic activity of genera” value [1] is listed as “stimulate growth and metabolic activity of two or more genera”. For the same compound, the “growth of Oscillibacter” value (Oscillibacter) was “−”, the “growth of Clostridium cocleatum” value (Clostridium cocleatum) was “−” and the “growth of Johnsonella” value (Johnsonella) was “−”. The “growth of Sporacetegenium” value (Sporacetegenium) was “w”.
For `O=C[C@H](O)[C@@H](O)[C@H](O)CO` [Xylose], the “growth of Coprobacillus” value (Coprobacillus) is listed as “−”, the “growth of Holdemania” value (Holdemania) is listed as “w” and the “growth of Oscillibacter” value (Oscillibacter) is listed as “+”. The “growth of Clostridium cocleatum” value (Clostridium cocleatum) was “−”, the “growth of Johnsonella” value (Johnsonella) was “−” and the “growth of Sporacetegenium” value (Sporacetegenium) was “+”.
For Inulin, the “growth of Clostridium cocleatum” value (Clostridium cocleatum) is listed as “+”.
